# Assay results published in the NIST ThermoML archive (doi:10.1021/je060271a).
# ± gives the expanded uncertainty stated by the source.
# Settings: 323.15 K, Liquid, Vibrating tube method
compound,measurement,setting,value
CCCCC(=O)OCC(COC(=O)CCCC)(COC(=O)CCCC)COC(=O)CCCC [pentaerythritol tetrapentanoate],mass density,31189 kPa,1015 ± 1.2 kg/m3
same,mass density,31223 kPa,1015.1 ± 1.2 kg/m3
same,mass density,31256 kPa,1015.1 ± 1.2 kg/m3
same,mass density,31290 kPa,1015.1 ± 1.2 kg/m3
same,mass density,31330 kPa,1015.1 ± 1.2 kg/m3
same,mass density,31363 kPa,1015 ± 1.2 kg/m3
same,mass density,31397 kPa,1015.2 ± 1.2 kg/m3
same,mass density,31438 kPa,1015.2 ± 1.2 kg/m3
same,mass density,31473 kPa,1015.2 ± 1.2 kg/m3
same,mass density,31507 kPa,1015.2 ± 1.2 kg/m3
same,mass density,31540 kPa,1015.3 ± 1.2 kg/m3
same,mass density,31581 kPa,1015.3 ± 1.2 kg/m3
same,mass density,31615 kPa,1015.4 ± 1.2 kg/m3
same,mass density,31649 kPa,1015.3 ± 1.2 kg/m3
same,mass density,31689 kPa,1015.3 ± 1.2 kg/m3
same,mass density,31724 kPa,1015.3 ± 1.2 kg/m3
same,mass density,31758 kPa,1015.3 ± 1.2 kg/m3
same,mass density,31794 kPa,1015.4 ± 1.2 kg/m3
same,mass density,31834 kPa,1015.5 ± 1.2 kg/m3
same,mass density,31869 kPa,1015.4 ± 1.2 kg/m3
same,mass density,31914 kPa,1015.4 ± 1.2 kg/m3
same,mass density,31941 kPa,1015.6 ± 1.2 kg/m3
same,mass density,31982 kPa,1015.4 ± 1.2 kg/m3
same,mass density,32017 kPa,1015.6 ± 1.2 kg/m3
same,mass density,32052 kPa,1015.6 ± 1.2 kg/m3
same,mass density,32093 kPa,1015.7 ± 1.2 kg/m3
same,mass density,32128 kPa,1015.6 ± 1.2 kg/m3
same,mass density,32170 kPa,1015.7 ± 1.2 kg/m3
same,mass density,32206 kPa,1015.7 ± 1.2 kg/m3
same,mass density,32240 kPa,1015.6 ± 1.2 kg/m3
same,mass density,32283 kPa,1015.7 ± 1.2 kg/m3
same,mass density,32318 kPa,1015.7 ± 1.2 kg/m3
same,mass density,32354 kPa,1015.8 ± 1.2 kg/m3
same,mass density,32398 kPa,1015.8 ± 1.2 kg/m3
same,mass density,32434 kPa,1015.8 ± 1.2 kg/m3
same,mass density,32470 kPa,1015.8 ± 1.2 kg/m3
same,mass density,32513 kPa,1015.7 ± 1.2 kg/m3
same,mass density,32550 kPa,1015.9 ± 1.2 kg/m3
same,mass density,32586 kPa,1015.9 ± 1.2 kg/m3
same,mass density,32623 kPa,1015.9 ± 1.2 kg/m3
same,mass density,32666 kPa,1016 ± 1.2 kg/m3
same,mass density,32701 kPa,1016 ± 1.2 kg/m3
same,mass density,32745 kPa,1015.9 ± 1.2 kg/m3
same,mass density,32782 kPa,1016.1 ± 1.2 kg/m3
same,mass density,32820 kPa,1016 ± 1.2 kg/m3
same,mass density,32864 kPa,1016.1 ± 1.2 kg/m3
same,mass density,32902 kPa,1016 ± 1.2 kg/m3
same,mass density,32939 kPa,1016.1 ± 1.2 kg/m3
same,mass density,32977 kPa,1016.1 ± 1.2 kg/m3
same,mass density,33022 kPa,1016.1 ± 1.2 kg/m3
same,mass density,33058 kPa,1016.2 ± 1.2 kg/m3
same,mass density,33096 kPa,1016.1 ± 1.2 kg/m3
same,mass density,33141 kPa,1016.2 ± 1.2 kg/m3
same,mass density,33179 kPa,1016.3 ± 1.2 kg/m3
same,mass density,33224 kPa,1016.3 ± 1.2 kg/m3
same,mass density,33262 kPa,1016.2 ± 1.2 kg/m3
same,mass density,33300 kPa,1016.2 ± 1.2 kg/m3
same,mass density,33338 kPa,1016.3 ± 1.2 kg/m3
same,mass density,33384 kPa,1016.4 ± 1.2 kg/m3
same,mass density,33423 kPa,1016.4 ± 1.2 kg/m3
same,mass density,33462 kPa,1016.3 ± 1.2 kg/m3
same,mass density,33508 kPa,1016.5 ± 1.2 kg/m3
same,mass density,33546 kPa,1016.4 ± 1.2 kg/m3
same,mass density,33593 kPa,1016.5 ± 1.2 kg/m3
same,mass density,33633 kPa,1016.5 ± 1.2 kg/m3
same,mass density,33672 kPa,1016.4 ± 1.2 kg/m3
same,mass density,33712 kPa,1016.4 ± 1.2 kg/m3
same,mass density,33760 kPa,1016.6 ± 1.2 kg/m3
same,mass density,33800 kPa,1016.5 ± 1.2 kg/m3
same,mass density,33841 kPa,1016.5 ± 1.2 kg/m3
same,mass density,33890 kPa,1016.6 ± 1.2 kg/m3
same,mass density,33934 kPa,1016.6 ± 1.2 kg/m3
same,mass density,33978 kPa,1016.7 ± 1.2 kg/m3
same,mass density,34031 kPa,1016.8 ± 1.2 kg/m3
same,mass density,34078 kPa,1016.7 ± 1.2 kg/m3
same,mass density,34125 kPa,1016.7 ± 1.2 kg/m3
same,mass density,34165 kPa,1016.8 ± 1.2 kg/m3
same,mass density,34193 kPa,1016.8 ± 1.2 kg/m3
same,mass density,34215 kPa,1016.8 ± 1.2 kg/m3
same,mass density,34242 kPa,1016.9 ± 1.2 kg/m3
